Data on six compounds can be found in patent US11447486B2, “2-amino-benzimidazole derivatives and their use as 5-lipoxygenase and/or prostaglandin E synthase inhibitors” (INSTITUT PASTEUR KOREA, priority 2014, dated 2022).

SMILES strings stand for the structures. A value given as a limit tells only on which side of the number the result lay.

The target of one data set is T1, human 5-LOX (Homo sapiens, UniProt P09917).
T1 construct: purchased Cayman 60402; host or cells: insect cells (lysate)
T1 sequence (P09917 1-674): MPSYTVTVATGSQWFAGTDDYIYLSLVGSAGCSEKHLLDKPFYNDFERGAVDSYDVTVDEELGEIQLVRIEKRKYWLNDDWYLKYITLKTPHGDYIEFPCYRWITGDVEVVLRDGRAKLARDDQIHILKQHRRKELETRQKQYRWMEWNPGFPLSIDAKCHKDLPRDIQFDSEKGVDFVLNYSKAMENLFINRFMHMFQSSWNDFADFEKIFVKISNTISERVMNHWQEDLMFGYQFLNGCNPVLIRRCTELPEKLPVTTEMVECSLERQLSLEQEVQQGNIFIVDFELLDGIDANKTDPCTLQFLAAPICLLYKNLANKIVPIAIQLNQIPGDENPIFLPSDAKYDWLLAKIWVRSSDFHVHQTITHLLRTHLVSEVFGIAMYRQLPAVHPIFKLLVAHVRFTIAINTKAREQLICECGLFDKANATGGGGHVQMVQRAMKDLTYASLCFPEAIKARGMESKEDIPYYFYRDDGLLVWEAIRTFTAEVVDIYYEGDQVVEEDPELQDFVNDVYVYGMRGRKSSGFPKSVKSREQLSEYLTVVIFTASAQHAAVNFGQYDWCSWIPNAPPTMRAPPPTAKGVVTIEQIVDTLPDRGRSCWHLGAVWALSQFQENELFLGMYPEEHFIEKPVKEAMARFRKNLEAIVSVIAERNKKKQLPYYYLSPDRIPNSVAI
The data set can be described thus: 5-LOX enzyme activity, fluorescence method (5-HPETE, H2DCFDA). The data set is classed as biochemical. The settings on record: read-out: 5-LO (IC50). The method in brief: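 Fluorescence-based read-out, run entirely at room temperature. Enzyme mixture was exposed to a dose range of compound from 0.5 nM to 10 uM for 5 min before ATP and arachidonic acid were added to final levels of 100 uM and 3 uM.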

For data set [1], the system named is Rat basophilic leukemia (RBL) cells. The data set can be described thus: LTB4 secretion assay in RBL (rat basophilic leukemia cells). It counts as cell-based. The settings on record: Rattus norvegicus, RBL. An outline of the steps: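 LTB4 released into supernatant was measured by EIA after 10 min at 37 °C with arachidonic acid (2.5 uM final) and calcium ionophore A23187 (5 uM final). Before stimulation, cells plated 2×10^4/well overnight received compound doses (5 nM to 100 uM) for 15 min in 0.5% FBS medium.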

The test system of another data set is HeLa S3 cells. Briefly: PGE2 inhibition assay (HTRF) in TNF-α stimulated HeLa S3 cells. The data set is classed as cell-based. The settings on record: Homo sapiens; PGE2, 10 uM compound, HeLa S3 stimulated with TNF-α. The procedure:
Human epitheloid cervix carcinoma HeLa S3 cells (2×10^6cells/ml) were seeded with modified F-12K buffer medium pH 7.4 in tissue culture plate and incubated for overnight at 37° C. and 5% CO2. Then medium was changed into new medium contained 10 uM testing compounds or 0.1% DMSO and incubated overnight. After incubation, cells were stimulated with 30 nM TNF-α (Tumor necrosis factor-α) for 16 h. For determination of PGE2, the supernatant was measured by PGE2 HTRF (Homogeneous Time Resolved Fluorescence) assay kit Inhibition of PGE2 by compounds is calculated as a percentage of activity in the presence of drug versus the activity in the stimulator TNF-α.
A general note: In TR-FRET formats the signal depends on donor and acceptor labels being close together.

Data set [2] addresses T2, Human recombinant cyclooxygenase-2 (Homo sapiens, UniProt P35354).
T2 construct: host or cells: insect Sf21 cells
T2 sequence (P35354 18-604): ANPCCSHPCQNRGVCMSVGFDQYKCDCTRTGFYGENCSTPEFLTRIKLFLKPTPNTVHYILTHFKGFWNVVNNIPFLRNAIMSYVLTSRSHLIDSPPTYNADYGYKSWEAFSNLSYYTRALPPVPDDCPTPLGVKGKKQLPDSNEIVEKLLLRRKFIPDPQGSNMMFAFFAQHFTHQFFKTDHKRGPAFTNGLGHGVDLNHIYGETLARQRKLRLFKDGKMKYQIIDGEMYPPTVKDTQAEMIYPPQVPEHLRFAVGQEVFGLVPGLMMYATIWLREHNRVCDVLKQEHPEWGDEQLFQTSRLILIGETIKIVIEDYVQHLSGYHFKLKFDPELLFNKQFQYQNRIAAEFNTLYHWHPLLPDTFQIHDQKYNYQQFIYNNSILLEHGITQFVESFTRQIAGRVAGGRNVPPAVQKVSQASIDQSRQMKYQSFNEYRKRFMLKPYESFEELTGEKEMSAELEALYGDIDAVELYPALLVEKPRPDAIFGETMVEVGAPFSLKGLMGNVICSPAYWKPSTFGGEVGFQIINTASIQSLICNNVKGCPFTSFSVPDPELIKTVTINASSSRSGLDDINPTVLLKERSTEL
Briefly: COX-2 inhibition assay (EIA). It counts as biochemical. The settings on record: for inhibition at 10 µM: COX-2, 10 uM compound; for inhibitory effect on cyclooxygenase-2 (COX-2): tested at 10 uM. The procedure:
Human recombinant cyclooxygenase-2 expressed in insect Sf21 cells was used. The testing compounds and reference compound (Rofecoxib) were dissolved in DMSO (Sigma, USA) and tested at 10 uM. Test samples were pre-incubated with 0.11 U enzyme in 100 mM modified Tris-HCl buffer pH 7.7 for 15 minutes at 37° C. The reactions were initiated by addition of 0.3 μM arachidonic acid for another 5-minute incubation period, then terminated by further addition of 1 N HCl. An aliquot was then combined with the EIA kit for spectrophotometric determination of the quantity of PGE2 formed. Inhibition % was determined by compared with relative amounts of PGE2 induced by arachidonic acid.

Data set [3] addresses T3, Human 5-lipoxygenase (5-LOX) (Homo sapiens, UniProt P09917).
T3 construct: purchased Cayman 60402; host or cells: insect cells
T3 sequence (P09917 1-674): T1 sequence (P09917 1-674)
Briefly: 5-LOX enzyme activity, LTB4 measurement by ELISA. It counts as biochemical. The settings on record: ELISA method; read-out: 5LO (IC50). The procedure:
The activity of compounds against 5-LOX were determined by measuring LTB4 (leukotriene B4) levels and/or by a fluorescence method. Both approaches are outlined in more detail below;
LTB4 Measurement by ELISA:
Human 5-lipoxygenase (5-LOX) (Cayman, Cat #60402) produced in insect cells was pre-incubated with compounds for 5 min at RT in incubation buffer (50 mM Tris-Cl, pH 7.4, 2 mM CaCl2, 0.1 mM ATP, 2% DMSO). Compounds were tested in dose reponse from 0.5 nM to 10 uM. The enzymatic reaction was started by adding arachidonic acid to a final concentration of 3 uM. After 5 min of incubation at 25° C., the reaction was stopped by adding H2O2 to a final concentration of 1 mM. LTB4 levels were quantified using a LTB4 EIA kit (Cayman, Cat #520111) as instructed.
(In general: An ELISA detects its analyte on a solid surface through an enzyme-linked reagent.)

For the next data set, the system named is Rat whole blood (RWB). The data set can be described thus: LTB4 secretion assay in RWB (rat whole blood). It counts as cell-based. The settings on record: Rattus norvegicus. An outline of the steps: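 LTB4 release was measured by EIA in supernatants of pooled, sodium heparin rat blood (male Sprague Dawley, 6-9 weeks) diluted 1:1 with RPMI. Compounds (2.5 nM to 50 uM) were added 15 min before A23187 (10 uM final), with 10 min stimulation at 37 °C before ice-cold PBS quench.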

Another data set has as its system Brown Norway rats. Briefly: OVA-induced airway inflammation model in Brown Norway rats. The data set is classed as in vivo, rat. The settings on record: 25, 50, 100 mg/kg p.o. BID, Day 19-21. An excerpt: The objective of this study is to determine the efficacy of compounds in the lungs of ovalbumin (OVA) induced in Brown Norway rats. As with most models of induced allergic asthma, animals are systemically sensitized to specific antigens and then, after a period of time, challenged with the same allergen administered via the airway. Ovalbumin had been used as the standard allergen to sensitize and challenge animals in this study.
Thirty (30) male Brown Norway rats were randomized into 5 groups on the basis of body weight. For sensitization, 1% OVA in PBS solution was mixed with alum solution (with volume ratio of 1:9). All rats in groups 1-5 were sensitized by i.p injection (1 mL/rat) of 1% OVA-alum sensitization solution on day 1, 2 and 3. At day 21, rats in groups 1-5 were challenged with 1% OVA in PBS solution with aerosolizing dosing system for 20 min.
Test compounds were administered by p.o. from days 19-21 of the study as per schedule below:
Group 1: sensitized-vehicle,
Group 2: reference drug dexamethasone, 0.3 mg/kg, p.o., Day 19-21, BID,
Group 3: compound 211, 25 mg/kg, p.o., Day 19-21, BID,
Group 4: compound 211, 50 mg/kg, p.o., Day 19-21, BID,
Group 5: compound 211, 100 mg/kg, p.o., Day 19-21, BID,
On day 22, bronchoalveolar lavage and lung tissues were harvested. Total cell number and differential cell counts in BALF, leukotriene B4 (LTB4) in BALF and lung tissue, histopathology of lung by H&E staining will be evaluated.

The term IC50 denotes the point on the concentration scale where inhibition reaches its midpoint. Usually EC50 stands for the concentration at which the effect is half-maximal. Read a high EC50 as weaker potency. What is called inhibition is the percentage by which the read-out fell short of the control. What is called melting point is the temperature, or range, at which the solid turns liquid.

As to `CC(C)Nc1ccc2[nH]c(NCc3ccc(Oc4ccccc4)cc3)nc2c1` [Compound 95], the melting point was > 137.5 °C. The half-maximal inhibitory concentration (IC50) on human 5-LOX is < 1 µM. Besides, the EC50 in data set [1] is < 10 µM. The inhibition at 10 µM with HeLa S3 cells is > 70%. Besides, in data set [2], the inhibition at 10 µM was < 1% and the “inhibitory effect on cyclooxygenase-2 (COX-2)” value is recorded as “do not have an inhibitory effect”.
Consider `Nc1ccc2[nH]c(NCc3ccc(Oc4ccc(Cl)cc4)cn3)nc2c1` [Compound 14], for which the IC50 (at human 5-LOX; in data set [3]) was < 1 µM in each case. Also, the concentration giving a half-maximal response (EC50) (in data set [1]; in the data set with Rat whole blood (RWB)) was < 10 µM in each case.
On to `Nc1ccc2c(c1)nc(N)n2CCOc1ccc(OC(F)(F)F)cc1` [Compound 49], for which the results for the IC50 (at human 5-LOX; in data set [3]) were > 10 µM and 1 to 20 µM, respectively. For the same compound, the results for the concentration giving a half-maximal response (EC50) (in data set [1]; in the data set on Rat whole blood (RWB)) were < 10 µM and 10 to 20 µM, respectively.
Turning to `Cn1c(NCc2ccc(Oc3ccc(Cl)cn3)cc2)nc2ccc(NC3COC3)cc21` [Compound 211], on human 5-LOX, the half-inhibitory concentration (IC50) is < 1 µM. Besides, the concentration giving a half-maximal response (EC50) (in data set [1]; in the data set with Rat whole blood (RWB)) was < 10 µM throughout. Besides, in the data set with Brown Norway rats, the “LTB4 in BALF and Lung” value is reported as “reduced”. The “increase of inflammatory cells including total cell and eosinophils” value with Brown Norway rats (BALF) was “significantly reduced”. In addition, in the data set with Brown Norway rats (lung histopathology), the inflammation cell infiltration result was “significantly reduced”. Further, the inhibition at 10 µM with HeLa S3 cells lay in the range of 40 to 70%.
Turning to `Nc1ccc2[nH]c(NCc3ccc(-c4ccccc4)cc3)nc2c1` [Compound 90], the melting point was > 200 °C. The concentration for half-maximal inhibition (IC50) at human 5-LOX was < 1 µM. Further, in data set [1], the EC50 is < 10 µM. The compound further yielded a concentration giving a half-maximal response (EC50) in the data set on Rat whole blood (RWB) of 10 to 20 µM. Also, the inhibition at 10 µM in the data set on HeLa S3 cells was > 70%. For the same compound, in data set [2], the inhibition at 10 µM was < 1% and the “inhibitory effect on cyclooxygenase-2 (COX-2)” value is given as “do not have an inhibitory effect”.
For the compound `Nc1ccc2nc(N)n(CCOc3ccc(OC(F)(F)F)cc3)c2c1` [Compound 48], the IC50 on human 5-LOX was < 1 µM; in data set [3], 1 to 20 µM. In addition, the EC50 (in data set [1]; in the data set on Rat whole blood (RWB)) was < 10 µM each time.
